The text below walks through data of US10820591B2, “Substituted sulfonyl amides for controlling animal pests” (Bayer Aktiengesellschaft, priority 2016, dated 2020).

Assay type in all cases: in vivo
In assay [1] the test system is Boophilus microplus. Nature of the assay: Boophilus microplus injection test. As to conditions: 20 μg/animal, after 7 days. On the procedure: Boophilus microplus—Injection Test Solvent: dimethyl sulfoxide To produce a suitable active compound preparation, 10 mg of active compound are mixed with 0.5 ml of solvent and the concentrate is diluted to the desired concentration with solvent. 1 μl of the active compound solution is injected into the abdomen of 5 engorged adult female cattle ticks (Boophilus microplus). The animals are transferred into dishes and kept in a climate-controlled room. Efficacy is assessed after 7 days by laying of fertile eggs. Eggs which are not visibly fertile are stored in a climate-controlled cabinet until the larvae hatch after about 42 days. An efficacy of 100% means that none of the ticks has laid any fertile eggs; 0% means that all the eggs are fertile.

Assay [2] has as its system Ctenocephalides felis. Nature of the assay: Ctenocephalides felis oral test. As to conditions: 100 ppm, after 2 days. On the procedure:
Ctenocephalides felis—Oral Test Solvent: dimethyl sulfoxide To produce a suitable active compound preparation, 10 mg of active compound are mixed with 0.5 ml of dimethyl sulfoxide. Dilution with citrated cattle blood gives the desired concentration. About 20 unfed adult cat fleas (Ctenocephalides felis) are placed into a chamber which is closed at the top and bottom with gauze. A metal cylinder whose bottom end is closed with parafilm is placed onto the chamber. The cylinder contains the blood/active compound preparation, which can be imbibed by the fleas through the parafilm membrane. After 2 days, the kill in % is determined. 100% means that all of the fleas have been killed; 0% means that none of the fleas have been killed.

Assay [3] concerns Nezara viridula. Kind of assay: Nezara viridula spray test. The note with it: 500 g/ha, barley plants, after 4 days. On the procedure: Nezara viridula—Spray Test [table] To produce a suitable active compound preparation, 1 part by weight of active compound is dissolved with the specified parts by weight of solvent and made up to the desired concentration with water containing an emulsifier concentration of 1000 ppm. To produce further test concentrations, the formulation is diluted with emulsifier-containing water. Barley plants (Hordeum vulgare) infected with larvae of the Southern green shield bug (Nezara viridula) are sprayed with an active compound preparation of the desired concentration. After 4 days, the efficacy in % is determined. 100% means that all of the shield bugs have been killed; 0% means that none of the shield bugs have been killed.

Assay [4] relates to Meloidogyne incognita. Kind of assay: Meloidogyne incognita test (sand, lettuce, gall formation). The note with it: Meloidogyne incognita, 336 h, 20 ppm, after 14 days; read-out: nematicidal efficacy (formation of galls). The essentials: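 Vessels held sand, diluted compound solution, M. incognita egg/larvae suspension and lettuce seeds, and the plants grew for 14 days. Efficacy in % came from root gall formation: 100% means no galls, 0% means galls equal to the untreated control.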

Assay [5] concerns Phaedon cochleariae. Nature of the assay: Phaedon cochleariae spray test. As to conditions: 500 g/ha, Chinese cabbage leaf discs, after 7 days. On the procedure:
Phaedon cochleariae—Spray Test
(§1) To produce a suitable active compound preparation, 1 part by weight of active compound is dissolved with the specified parts by weight of solvent and made up to the desired concentration with water containing an emulsifier concentration of 1000 ppm. To produce further test concentrations, the formulation is diluted with emulsifier-containing water.
After 7 days, the efficacy in % is determined. 100% means that all the beetle larvae have been killed; 0% means that no beetle larvae have been killed.

In assay [6] the test system is Tetranychus urticae. Kind of assay: Tetranychus urticae spray test, OP-resistant. The note with it: foliar, 144 h, bean leaf discs, after 6 days, read-out: efficacy. On the procedure: Tetranychus urticae—Spray Test, OP-Resistant
as §1
Discs of bean leaves (Phaseolus vulgaris) infested with all stages of the greenhouse red spider mite (Tetranychus urticae) are sprayed with an active compound preparation of the desired concentration.
After 6 days, the efficacy in % is determined. 100% means that all the spider mites have been killed; 0% means that no spider mites have been killed.

Assay [7] relates to Nilaparvata lugens. Nature of the assay: Nilaparvata lugens test. The note with it: 500 g/ha, spray, rice plants, after 4 days. On the procedure: Nilaparvata lugens Test [table] To produce a suitable active compound preparation, 1 part by weight of active compound is dissolved with the specified parts by weight of solvent and made up to the desired concentration with water containing an emulsifier concentration of 1000 ppm. To produce further test concentrations, the formulation is diluted with emulsifier-containing water. Rice plants (Oryza sativa) are sprayed with the active compound preparation of the desired concentration and then infected with larvae of the brown planthopper (Nilaparvata lugens). After 4 days, the efficacy in % is determined. 100% means that all of the planthoppers have been killed; 0% means that none of the planthoppers have been killed.

For assay [8], the system named is Lucilia cuprina. Kind of assay: Lucilia cuprina test. As to conditions: 100 ppm, L1 larvae, after 2 days. On the procedure:
Lucilia cuprina Test Solvent: dimethyl sulfoxide To produce a suitable active compound preparation, 10 mg of active compound are mixed with 0.5 ml of dimethyl sulfoxide, and the concentrate is diluted with water to the desired concentration. About 20 L1 larvae of the Australian sheep blowfly (Lucilia cuprina) are transferred into a test vessel containing minced horsemeat and the active compound preparation of the desired concentration. After 2 days, the kill in % is determined. 100% means that all the larvae have been killed; 0% means that no larvae have been killed.

The subject of assay [9] is Spodoptera frugiperda. Kind of assay: Spodoptera frugiperda spray test. The note with it: 500 g/ha, maize leaf discs, after 7 days. On the procedure:
Spodoptera frugiperda—Spray Test [table] To produce a suitable active compound preparation, 1 part by weight of active compound is dissolved with the specified parts by weight of solvent and made up to the desired concentration with water containing an emulsifier concentration of 1000 ppm. To produce further test concentrations, the formulation is diluted with emulsifier-containing water. Leaf discs of maize (Zea mays) are sprayed with an active compound preparation of the desired concentration and, after drying, populated with caterpillars of the armyworm (Spodoptera frugiperda). After 7 days, the efficacy in % is determined. 100% means that all the caterpillars have been killed; 0% means that no caterpillar has been killed.

Assay [10] deals with Myzus persicae. Kind of assay: Myzus persicae spray test (Chinese cabbage leaf discs). As to conditions: foliar, 144 h, 500 g/ha, after 6 days, read-out: efficacy. On the procedure: Myzus persicae—Spray Test [table] To produce a suitable active compound preparation, 1 part by weight of active compound is dissolved with the specified parts by weight of solvent and made up to the desired concentration with water containing an emulsifier concentration of 1000 ppm. To produce further test concentrations, the formulation is diluted with emulsifier-containing water. Discs of Chinese cabbage leaves (Brassica pekinensis) infested by all stages of the green peach aphid (Myzus persicae) are sprayed with an active compound preparation of the desired concentration. After 6 days, the efficacy in % is determined. 100% means that all the aphids have been killed; 0% means that no aphids have been killed.

The subject of assay [11] is Diabrotica balteata. Nature of the assay: Diabrotica balteata spray test. As to conditions: 160 μg/well, after 7 days. On the procedure:
Diabrotica balteata—Spray Test [table] To produce a suitable active compound preparation, 1 part by weight of active compound is dissolved with the specified parts by weight of solvent and made up to the desired concentration with water containing an emulsifier concentration of 1000 ppm. To produce further test concentrations, the formulation is diluted with emulsifier-containing water. Pre-swollen wheat grains (Triticum aestivum) are incubated in a multiwell plate filled with agar and a little water for one day (5 seed grains per cavity). The germinated wheat grains are sprayed with an active compound preparation of the desired concentration. Subsequently, each cavity is infected with 10-20 beetle larvae of Diabrotica balteata. After 7 days, the efficacy in % is determined. 100% means that all maize plants have grown as in the untreated, uninfected control; 0% means that no maize plant has grown.

For assay [12], the system named is Myzus persicae. Nature of the assay: Myzus persicae spray test (bell pepper plants). As to conditions: 100 ppm, after 6 days. On the procedure:
Myzus persicae—Spray Test [table] To produce a suitable active compound preparation, 1 part by weight of active compound is dissolved with the specified parts by weight of solvent and made up to the desired concentration with water containing an emulsifier concentration of 1000 ppm. To produce further test concentrations, the formulation is diluted with emulsifier-containing water. If the addition of ammonium salts or/and penetrants is required, these are each added in a concentration of 1000 ppm to the formulation solution. Bell pepper plants (Capsicum annuum) severely infested with the green peach aphid (Myzus persicae) are treated by spraying with the active compound preparation in the desired concentration. After 6 days, the kill in % is determined. 100% means that all of the aphids have been killed; 0% means that none of the aphids have been killed.

For assay [13], the system named is Myzus persicae. Kind of assay: Myzus persicae oral test. As to conditions: 120 h, 20 ppm, after 5 days, read-out: efficacy. On the procedure: (§2) Myzus persicae—Oral Test [table] To produce a suitable active compound preparation, 1 part by weight of active compound is dissolved with the stated parts by weight of solvent and made up to the desired concentration with water. 50 μl of the active compound preparation are transferred into microtitre plates and made up to a final volume of 200 μl with 150 μl of IPL41 insect medium (33%+15% sugar). Subsequently, the plates are sealed with parafilm, which a mixed population of green peach aphids (Myzus persicae) within a second microtitre plate is able to puncture and imbibe the solution through it. After 5 days, the efficacy in % is determined. 100% means that all the aphids have been killed; 0% means that no aphids have been killed.

Assay [14] deals with Aphis gossypii. Nature of the assay: Aphis gossypii oral test. As to conditions: 100 ppm, after 5 days. On the procedure:
as §2, with “Aphis gossypii—Oral” for “Myzus persicae—Oral”, “the cotton aphid (Aphis gossypii)” for “green peach aphids (Myzus persicae)”

For the compound `COc1cccc(S(=O)(=O)NC(=O)c2ncn(CCC(F)(F)F)c2Cl)c1` [I-032], the “efficacy (laying of fertile eggs)” value in assay [1] amounted to 90%. Moreover, the “efficacy (kill in %)” value in [2] was determined as 70%. Besides, the efficacy in [3] came to 100%; in assay [5], 83%; in assay [7], 100%. For the same compound, the pest or weed control at 20 ppm in assay [4] came out at 90%. Besides, the pest or weed control at 500 g/ha in assay [6] came out at 90%.

In the case of `Cc1cccc(S(=O)(=O)NC(=O)c2ncn(CCC(F)(F)F)c2Cl)c1` [I-035], in assay [1], the “efficacy (laying of fertile eggs)” value turned out to be 100%. Also, the “efficacy (kill in %)” value in assay [8] is given as 100%. The efficacy in assay [3], in assay [5] and in assay [7] was 100% in each case. Also, the pest or weed control at 20 ppm in assay [4] was 90%.

Regarding `COc1ccc(S(=O)(=O)NC(=O)c2ncn(CCC(F)(F)F)c2Cl)cc1C` [I-037], in [4], the pest or weed control at 20 ppm turned out to be 100%. For the same compound, the efficacy in [5] is 83%.

Turning to `O=C(NS(=O)(=O)c1ccccc1)c1ncn(C2CC2C(F)(F)F)c1Cl` (centres unmarked) [I-059], the “efficacy (laying of fertile eggs)” value in assay [1] was 100%. For the same compound, the efficacy in assay [9] worked out at 100%; in [5], 83%. In assay [4], the pest or weed control at 20 ppm came out at 100%. The pest or weed control at 500 g/ha came to 90% in assay [6] and 70% in [10].

`O=C(NS(=O)(=O)c1ccccc1Cl)c1ncn(C2CC2C(F)(F)F)c1Cl` (centres unmarked) [I-060]: the “efficacy (laying of fertile eggs)” value in [1] came to 70%. In assay [9], this compound had an efficacy of 100%. Also, the pest or weed control at 20 ppm in [4] was found to be 90%. Besides, the figures for the pest or weed control at 500 g/ha in assay [6] and in [10] were 90% and 70%, respectively.

Regarding `COc1ccc(S(=O)(=O)NC(=O)c2ncn(C(C)CC(F)(F)F)c2Cl)cc1` (centres unmarked) [I-070], in [4], the pest or weed control at 20 ppm was found to be 100%. In assay [7], the efficacy amounted to 100%.

On to `O=C(NS(=O)(=O)c1ccccc1Cl)c1nc(Br)n(CCC(F)(F)F)c1Br` [I-107], for which, in assay [4], the pest or weed control at 20 ppm was 100%. Further, the efficacy in assay [7] was 100%.

Consider `COc1ccc(Cl)c(S(=O)(=O)NC(=O)c2nc(Cl)n(CCC(F)(F)F)c2Cl)c1` [I-118], for which, in assay [4], the pest or weed control at 20 ppm was determined as 100%. This compound gave an efficacy in [11] of 100%.

`O=C(NS(=O)(=O)c1ccccc1Cl)c1cn(Cc2ccccc2Cl)cn1` [I-156] gave an efficacy in assay [9] of 100%. In [4], the pest or weed control at 20 ppm was determined as 100%.

As for `O=C(NS(=O)(=O)c1cccc(Cl)c1)c1cn(-c2cc(Cl)cc(C(F)(F)F)c2)cn1` [I-300], in assay [4], the pest or weed control at 20 ppm came out at 70%. Besides, in [5], the efficacy was 100%.

`Cc1nc(C(=O)NS(=O)(=O)c2ccccc2Cl)cn1-c1cc(Cl)cc(Cl)c1` [I-316]: in assay [12], the “efficacy (kill in %)” value was found to be 95%. In addition, the pest or weed control at 20 ppm in assay [13] and in [4] was 100% in each case.

With `CCSc1cccc(Cl)c1S(=O)(=O)NC(=O)c1cn(-c2cc(F)cc(F)c2)c(C)n1` [I-387], the “efficacy (kill in %)” value in [12] stood at 99%. Moreover, the pest or weed control at 20 ppm in assay [13] and in assay [4] was 100% throughout. Moreover, the pest or weed control at 500 g/ha in [10] was determined as 70%.

For the compound `CS(=O)(=O)NC(=O)c1cn(Cc2ccc(C(F)(F)F)c(Cl)c2)cn1` [I-412], the efficacy in [14] is 90%. Besides, the pest or weed control at 20 ppm in assay [4] is 100%.

Regarding `CCc1ccc(C)c(S(=O)(=O)NC(=O)c2nc(Cl)n(CCC(F)(F)F)c2Cl)c1` [I-456], the pest or weed control at 20 ppm in assay [4] was 100%. In assay [7], this compound registered an efficacy of 100%.
